Results from article PMC4254195 (European journal of medicinal chemistry, 2014).

Biological target: T1, PTP1B (Homo sapiens, UniProt P18031)
T1 sequence (P18031 1-435): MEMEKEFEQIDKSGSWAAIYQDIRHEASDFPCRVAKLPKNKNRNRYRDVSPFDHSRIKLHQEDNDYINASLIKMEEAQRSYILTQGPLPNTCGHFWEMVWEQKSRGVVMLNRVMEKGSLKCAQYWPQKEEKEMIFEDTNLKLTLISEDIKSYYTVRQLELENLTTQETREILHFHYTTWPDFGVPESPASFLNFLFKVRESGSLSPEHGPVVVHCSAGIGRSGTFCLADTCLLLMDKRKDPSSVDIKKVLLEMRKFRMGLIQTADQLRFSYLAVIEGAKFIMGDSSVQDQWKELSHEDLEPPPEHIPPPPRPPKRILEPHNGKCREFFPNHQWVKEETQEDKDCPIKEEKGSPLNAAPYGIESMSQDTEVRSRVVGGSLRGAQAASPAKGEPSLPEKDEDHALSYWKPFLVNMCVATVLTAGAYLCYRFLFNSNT
Assay: competition with BiPhYn-1 labelling of PTP1B in cells
Type: cell-based

Compound: C=CS(=O)(=O)c1ccccc1 [PVSF, phenyl vinyl sulfone]
- competition with BiPhYn-1 labelling of PTP1B in cells: exhibited loss of detection of oxidized PTP1B with BiPhYn-1 in the presence of increasing concentrations of PVSF
